The results in this text go back to paper PMC3419191, “Identification of Novel Piperazinylquinoxaline Derivatives as Potent Phosphoinositide 3-Kinase (PI3K) Inhibitors” (PLoS ONE, 2012).

The term IC50 denotes the point on the concentration scale where inhibition reaches its midpoint. As usually defined, the melting point is the temperature of the solid-liquid transition.

Molecules are shown by their SMILES.

Data set [1] deals with PC3. As to the kind of experiment: MTT assay, antiproliferative activity against PC3 cells. It is filed as cell-based. The conditions noted are these: Homo sapiens, PC-3, 72 h, mean of at least two determinations. The source says:
(§1) All synthesized target compounds were firstly tested for their antiproliferative activity against five human cancer cell lines, PC3, A549, HCT116, HL60, and KB, using MTT assay.
(§2) Human prostate cancer PC3 cells, lung adenocarcinoma epithelial A549 cells, colon cancer HCT116 cells, promyelocytic leukemia HL60 cells and nasopharyngeal carcinoma KB cells were obtained from the cell bank of the Institute of Biochemistry and Cell Biology, Chinese Academy of Sciences (Shanghai, China). The inhibitory activity of target compounds against tested cancer cell lines was measured using the MTT assay. PC3, A549, HCT116, HL60, and KB cancer cell lines were cultured in RPMI-1640 medium (Invitrogen, Carlsbad, CA, USA) with heat-inactivated 10% fetal bovine serum, penicillin (100 units/mL) and streptomycin (100 µg/mL) and incubated in an atmosphere with 20% oxygen and 5% carbon dioxide at 37°C. All tested compounds were dissolved in DMSO at concentrations of 10.0 mg/mL and diluted to appropriate concentrations. Cells were plated in 96-well plates for 24 h and subsequently treated with different concentrations of all tested compounds for 72 h. Viable cells were determined using 3-(4,5-dimethylthiazol-2-yl)-2,5-diphenyltetrazolium bromide assay kit (MTT, Sigma) according to operation instructions provided by the manufacturer. The concentration of drug causing 50% inhibition in absorbance compared with control cells (IC50) was calculated using the software of dose-effect analysis with microcomputers.
For orientation: Tetrazolium assays rely on reduction of a dye to a coloured formazan, in cell work by metabolically active cells.

The test system of data set [2] is A549. As to the kind of experiment: MTT assay, antiproliferative activity against A549 cells. It is filed as cell-based. The conditions noted are these: Homo sapiens, 72 h, mean of at least two determinations.
Description: as §1, §2

Data set [3] deals with T1, recombinant human PI3Kα (Homo sapiens, UniProt P42336).
T1 construct: purchased Echelon Biosciences (Salt Lake City, UT, USA) E-2000
T1 sequence (P42336 whole entry): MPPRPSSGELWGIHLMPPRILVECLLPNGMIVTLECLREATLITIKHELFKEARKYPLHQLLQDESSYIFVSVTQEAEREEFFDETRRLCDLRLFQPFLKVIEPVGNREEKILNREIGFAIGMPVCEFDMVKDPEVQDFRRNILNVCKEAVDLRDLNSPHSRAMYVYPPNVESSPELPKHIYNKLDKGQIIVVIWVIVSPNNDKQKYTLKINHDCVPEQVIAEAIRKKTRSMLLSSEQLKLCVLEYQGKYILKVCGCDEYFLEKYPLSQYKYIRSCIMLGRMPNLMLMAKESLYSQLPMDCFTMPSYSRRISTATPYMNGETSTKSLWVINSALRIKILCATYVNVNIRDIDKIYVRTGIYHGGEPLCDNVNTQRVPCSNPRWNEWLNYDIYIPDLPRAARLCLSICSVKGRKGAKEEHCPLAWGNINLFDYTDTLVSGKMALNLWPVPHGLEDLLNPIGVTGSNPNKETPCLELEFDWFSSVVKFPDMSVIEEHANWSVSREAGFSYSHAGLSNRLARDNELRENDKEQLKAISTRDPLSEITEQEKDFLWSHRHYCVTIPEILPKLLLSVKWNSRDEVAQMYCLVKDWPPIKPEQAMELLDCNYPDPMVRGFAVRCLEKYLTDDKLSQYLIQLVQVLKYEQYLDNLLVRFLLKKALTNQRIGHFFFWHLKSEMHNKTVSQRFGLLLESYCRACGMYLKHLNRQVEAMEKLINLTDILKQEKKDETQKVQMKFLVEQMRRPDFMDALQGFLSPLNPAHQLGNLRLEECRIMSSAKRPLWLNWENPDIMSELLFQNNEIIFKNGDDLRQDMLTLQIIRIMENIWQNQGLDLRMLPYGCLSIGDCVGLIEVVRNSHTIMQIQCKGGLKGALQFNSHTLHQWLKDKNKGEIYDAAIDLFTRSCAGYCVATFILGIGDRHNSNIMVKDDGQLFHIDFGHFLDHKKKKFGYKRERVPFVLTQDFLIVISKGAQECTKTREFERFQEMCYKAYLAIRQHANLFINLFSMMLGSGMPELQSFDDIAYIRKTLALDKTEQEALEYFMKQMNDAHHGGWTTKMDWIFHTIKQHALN
T1 sequence (P27986 whole entry partner): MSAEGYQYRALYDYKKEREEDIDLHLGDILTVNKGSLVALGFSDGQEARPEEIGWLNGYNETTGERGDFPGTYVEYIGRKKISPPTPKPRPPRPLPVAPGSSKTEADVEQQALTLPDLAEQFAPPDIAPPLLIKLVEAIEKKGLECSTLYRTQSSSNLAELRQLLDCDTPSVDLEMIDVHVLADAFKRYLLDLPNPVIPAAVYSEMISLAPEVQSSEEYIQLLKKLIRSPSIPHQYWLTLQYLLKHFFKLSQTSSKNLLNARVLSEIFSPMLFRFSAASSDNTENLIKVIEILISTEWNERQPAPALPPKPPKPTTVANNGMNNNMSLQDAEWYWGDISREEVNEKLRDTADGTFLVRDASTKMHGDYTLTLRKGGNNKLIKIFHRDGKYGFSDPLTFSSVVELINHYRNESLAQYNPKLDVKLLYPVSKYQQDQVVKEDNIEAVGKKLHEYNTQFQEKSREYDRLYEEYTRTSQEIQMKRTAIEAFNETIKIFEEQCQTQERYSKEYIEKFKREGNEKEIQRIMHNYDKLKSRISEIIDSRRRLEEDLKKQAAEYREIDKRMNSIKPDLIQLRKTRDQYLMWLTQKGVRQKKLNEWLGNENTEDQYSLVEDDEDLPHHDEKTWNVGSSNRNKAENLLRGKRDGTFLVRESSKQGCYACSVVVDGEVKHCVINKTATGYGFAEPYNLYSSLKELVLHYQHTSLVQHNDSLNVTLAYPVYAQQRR
As to the kind of experiment: Competitive fluorescence polarization (FP) assay, inhibition of PI3Kα. Type of data set: biochemical. The conditions noted are these: for Binding efficiency index (BEI): BEI = pIC50 (M)/MW (kDa), PI3Kα; for IC50: FP assay, 50 µM ATP, mean of at least two determinations. The protocol: Selected compounds were then tested for their enzymatic inhibitory activity against PI3Kα using a competitive fluorescence polarization (FP) assay to determine the molecular target of synthesized compounds [21].
The PI3Kα inhibitory test was determined using a competitive fluorescence polarization kinase activity assay. PI3K fluorescence polarization assay kit (catalog No. K-1100) and recombinant human PI3Kα (catalog No. E-2000) were purchased from Echelon Biosciences (Salt Lake City, UT, USA). PI3K reactions were performed in 5 mM HEPES, Ph 7, 2.5 mM MgCl2, 10 mM DTT and 50 µM ATP, using diC8-phosphatidylinositol-4, 5-bisphosphate (PIP2) as the substrate, and the final reaction volumes were 10 µL. For evaluation of the PI3Kα inhibitory activity of target compounds, 50 ng enzyme and 10 µM substate were used per 10 µL reaction volume with the concentrations of inhibitors ranging from 3.2 nM to 10 µM. After incubating for 3 h at room temperature, reactions were quenched by adding chelators. A mixture of phosphoinositide binding protein was added and mixed, followed by the addition of a fluorophore-labeled phosphoinositide tracer. Samples were then mixed in 384-well black Corning nonbinding plates (Corning, NY, USA) and incubated in a dark environment for 1 h to equilibrate. Finally, polarization values were measure using red fluorophores with appropriate filters to determine the extent of enzyme activity in the reaction.
(Fluorescence polarisation rises when a labelled molecule tumbles more slowly, as on binding a larger partner.)

Data set [4] concerns HCT116. As to the kind of experiment: MTT assay, antiproliferative activity against HCT116 cells. It is filed as cell-based. The conditions noted are these: Homo sapiens, HCT-116, 72 h, mean of at least two determinations.
Description: as §1, §2

Data set [5] concerns KB. As to the kind of experiment: MTT assay, antiproliferative activity against KB cells. Type of data set: cell-based. The conditions noted are these: Homo sapiens, 72 h, mean of at least two determinations.
Description: as §1, §2

In data set [6] the test system is HL60. As to the kind of experiment: MTT assay, antiproliferative activity against HL60 cells. Type of data set: cell-based. The note with it: Homo sapiens, HL-60, 72 h, mean of at least two determinations.
Description: as §1, §2

As for `O=S(=O)(c1ccc(Br)cc1)c1nc2ccccc2nc1N1CCN(CCCN2CCOCC2)CC1` [Compound 52, 2-(4-(3-Morpholinopropyl)piperazin-1-yl)-3-(4-bromophenylsulfonyl)quinoxaline], the IC50 came to 1.19 µM in data set [1], 0.34 µM in data set [2], 0.2 µM in data set [3] and 0.22 µM in data set [4]. Also, in data set [3], the “Binding efficiency index (BEI)” value amounted to 11.9.

Compound `CS(=O)(=O)N1CCN(c2nc3ccccc3nc2S(=O)(=O)c2ccc(Br)cc2)CC1` [Compound 42, 2-(4-(Methylsulfonyl)piperazin-1-yl)-3-(4-bromophenylsulfonyl)quinoxaline] showed a melting point of 194 to 196 °C. In data set [1], this compound showed an IC50 of 1.95 µM. The same compound displayed an IC50 in data set [2] of 1.32 µM. Moreover, in data set [3], the “Binding efficiency index (BEI)” value came to 12.4 and the IC50 was 0.44 µM. For the same compound, in data set [4], the IC50 amounted to 0.41 µM.

With `CC1CN(c2nc3ccccc3nc2S(=O)(=O)c2ccccc2)CCN1` (stereo not shown) [Compound 24, 2-(3-Methylpiperazin-1-yl)-3-(phenylsulfonyl)quinoxaline], the IC50 in data set [1] was 1.44 µM; in data set [2], 1.36 µM; in data set [3] it was 0.059 µM; in data set [5], 8.73 µM; in data set [6] it was 0.15 µM; in data set [4], 0.68 µM. For the same compound, the “Binding efficiency index (BEI)” value in data set [3] amounted to 19.7.

Consider `O=S(=O)(c1ccccc1)c1nc2ccccc2nc1N1CCOCC1` [WR1, reference compound], for which the IC50 came out at 18.9 µM in data set [1], 12.6 µM in data set [2], 4.47 µM in data set [6] and 5.35 µM in data set [4]. Moreover, in data set [3], the “Binding efficiency index (BEI)” value is recorded as 17.9.

Consider `O=S(=O)(c1ccccc1)c1nc2ccccc2nc1N1CCNCC1` [Compound 19, 2-(Piperazin-1-yl)-3-(phenylsulfonyl)quinoxaline], for which the IC50 is 0.9 µM in data set [1]; 12.8 µM in data set [2]; 0.19 µM in data set [3]; 8.27 µM in data set [5]; 0.11 µM in data set [6]; 0.99 µM in data set [4]. Besides, in data set [3], the “Binding efficiency index (BEI)” value is reported as 19.0.

For the compound `Cc1ccc(S(=O)(=O)N2CCN(c3nc4ccccc4nc3S(=O)(=O)c3ccc(F)cc3)CC2)cc1` [Compound 48, 2-(4-(4-Methylphenylsulfonyl)piperazin-1-yl)-3-(4-fluorophenylsulfonyl)-quinoxaline], the melting point is 172 to 174 °C. For the same compound, in data set [1], the IC50 is 3.39 µM. The midpoint of inhibition in data set [2], the IC50, lay at 48.2 µM. This compound also gave an IC50 in data set [5] of 5.17 µM. This compound also yielded an IC50 in data set [6] of 9.48 µM. The compound also had an IC50 in data set [4] of 3.76 µM.

For `O=S(=O)(c1ccccc1)c1nc2ccccc2nc1N1CCN(CCCN2CCOCC2)CC1` [Compound 49, 2-(4-(3-Morpholinopropyl)piperazin-1-yl)-3-(phenylsulfonyl)quinoxaline], the IC50 worked out at 5.12 µM in data set [1], 0.73 µM in data set [2], 0.18 µM in data set [3] and 0.65 µM in data set [4]. For the same compound, in data set [3], the “Binding efficiency index (BEI)” value is on record as 14.0.

The compound `O=C(c1ccc(Cl)cc1)N1CCN(c2nc3ccccc3nc2S(=O)(=O)c2ccc(F)cc2)CC1` [Compound 38, 2-(4-(4-Chlorobenzoyl)piperazin-1-yl)-3-(4-fluorophenylsulfonyl)quinoxaline] displayed a melting point of 214 to 215 °C. The compound also had an IC50 in data set [1] of 4.05 µM. The compound also showed an IC50 in data set [2] of 17.7 µM. Half-maximal inhibition in data set [5] (IC50) required 1.88 µM. The same compound came in with a half-maximal inhibitory concentration (IC50) in data set [6] of 4.44 µM. In data set [4], this compound gave an IC50 of 8.75 µM.

In the case of `O=C(c1ccccc1)N1CCN(c2nc3ccccc3nc2S(=O)(=O)c2ccc(Br)cc2)CC1` [Compound 32, 2-(4-Benzoylpiperazin-1-yl)-3-(4-bromophenylsulfonyl)quinoxaline], the melting point lay in the range of 204 to 205 °C. Besides, in data set [1], the IC50 is 1.4 µM. Also, the IC50 in data set [2] amounted to 3.96 µM. In data set [5], this compound returned an IC50 of 3.37 µM. In data set [6], the IC50 is 17.4 µM. Besides, 10.1 µM corresponded to half-maximal inhibition in data set [4] (IC50).

`COc1ccc(S(=O)(=O)c2nc3ccccc3nc2N2CCN(C(C)=O)CC2)cc1` [Compound 11, 2-(4-Acetylpiperazin-1-yl)-3-(4-methoxyphenylsulfonyl)quinoxaline] showed a melting point of 160 to 162 °C. This compound also came in with an IC50 in data set [1] of 2.18 µM. In data set [2], this compound came in with an IC50 of 18.6 µM. Besides, inhibition in data set [5] was half-maximal at 10.3 µM (IC50). In addition, half-maximal inhibition in data set [6] (IC50) was put at 0.48 µM. The IC50 in data set [4] was found to be 3.66 µM.

`CS(=O)(=O)N1CCN(c2nc3ccccc3nc2S(=O)(=O)c2ccccc2)CC1` [Compound 39, 2-(4-(Methylsulfonyl)piperazin-1-yl)-3-(phenylsulfonyl)quinoxaline] returned a melting point of 182 to 185 °C. For the same compound, in data set [1], it took 1.07 µM to reach half-maximal inhibition (IC50). Also, the midpoint of inhibition in data set [2], the IC50, lay at 2.37 µM. Further, in data set [3], the “Binding efficiency index (BEI)” value is 13.6 and the IC50 came to 1.34 µM. The compound further had an IC50 in data set [4] of 1.21 µM.

For the compound `COc1ccc(S(=O)(=O)c2nc3ccccc3nc2N2CCC(C(N)=O)CC2)cc1` [Compound 6, 2-(4-Carbamoylpiperidin-1-yl)-3-(4-methoxyphenylsulfonyl)quinoxaline], the melting point was in the range of 185 to 187 °C. In data set [1], this compound had an IC50 of 2.28 µM. In data set [2], the IC50 turned out to be 17 µM. In data set [5], it took 10.2 µM to reach half-maximal inhibition (IC50). In data set [6], this compound yielded an IC50 of 0.21 µM. The IC50 in data set [4] stood at 2.55 µM.

On to `CN1CCN(c2nc3ccccc3nc2S(=O)(=O)c2ccc(F)cc2)CC1` [Compound 18, 2-(4-Methylpiperazin-1-yl)-3-(4-fluorophenylsulfonyl)quinoxaline], for which the melting point is 147 to 148 °C. In data set [1], half-maximal inhibition (IC50) required 3.09 µM. Further, in data set [2], the IC50 is 7.95 µM. Besides, in data set [5], it took 21.6 µM to reach half-maximal inhibition (IC50). The compound further gave an IC50 in data set [6] of 2.75 µM. Further, in data set [4], the IC50 amounted to 8.21 µM.

As to `Cc1ccc(S(=O)(=O)N2CCN(c3nc4ccccc4nc3S(=O)(=O)c3ccc(Br)cc3)CC2)cc1` [Compound 47, 2-(4-(4-Methylphenylsulfonyl)piperazin-1-yl)-3-(4-bromophenylsulfonyl)-quinoxaline], the melting point was in the range of 214 to 216 °C. This compound returned an IC50 in data set [1] of 4.89 µM. Further, 19.5 µM corresponded to half-maximal inhibition in data set [2] (IC50). The compound further registered an IC50 in data set [5] of 2.73 µM. The compound also registered an IC50 in data set [6] of 10.3 µM. The same compound registered an IC50 in data set [4] of 5.07 µM.

In the case of `O=S(=O)(c1ccc(Br)cc1)c1nc2ccccc2nc1N1CCC(O)CC1` [WR23, reference compound], the “Binding efficiency index (BEI)” value in data set [3] stood at 17.0.

`Cc1ccc(S(=O)(=O)c2nc3ccccc3nc2N2CCN(S(C)(=O)=O)CC2)cc1` [Compound 40, 2-(4-(Methylsulfonyl)piperazin-1-yl)-3-(4-methylphenylsulfonyl)quinoxaline]: the IC50 in data set [1] was 5.35 µM; in data set [2], 1.93 µM; in data set [3], 0.46 µM; in data set [4], 1.07 µM.

With `Cc1ccc(S(=O)(=O)c2nc3ccccc3nc2N2CCN(C(=O)c3ccc(Cl)cc3)CC2)cc1` [Compound 35, 2-(4-(4-Chlorobenzoyl)piperazin-1-yl)-3-(4-methylphenylsulfonyl)quinoxaline], the melting point is 188 to 190 °C. This compound yielded an IC50 in data set [1] of 3.61 µM. In addition, in data set [2], the IC50 came to 21.6 µM. The compound further registered an IC50 in data set [5] of 2.84 µM. The same compound gave an IC50 in data set [6] of 6.09 µM. In data set [4], the IC50 was found to be 9.84 µM.

Take `COc1ccc(S(=O)(=O)c2nc3ccccc3nc2N2CCNCC2)cc1` [Compound 21, 2-(Piperazin-1-yl)-3-(4-methoxyphenylsulfonyl)quinoxaline]: the melting point fell in the range of 142 to 144 °C. This compound gave an IC50 in data set [1] of 0.68 µM. In data set [2], this compound came in with an IC50 of 1.37 µM. Moreover, the IC50 in data set [5] came to 11.5 µM. Also, in data set [6], half-maximal inhibition (IC50) required 0.16 µM. The IC50 in data set [4] is 0.63 µM.
